From ChEMBL document CHEMBL4819064, “Discovery of new pyrimidopyrrolizine/indolizine-based derivatives as P-glycoprotein inhibitors: Design, synthesis, cytotoxicity, and MDR reversal activities” (Eur J Med Chem, 2021) come the findings set out here.

A value given as a limit tells only on which side of the number the result lay.

A short description of series [1]: Inhibition of P-gp in mouse EMT6/AR1.0 cells assessed reduction in tritiated daunomycin efflux incubated for 2 hrs by radioactivity based assay. The class given is cell-based. The conditions noted are these: EMT6/AR1, 2 h.
Series [2] relates to NCI/ADR-RES. In words: Cytotoxicity against human MCF7/ADR cells assessed as reduction in cell viability incubated for 72 hrs in presence of doxorubicin by MTT assay. The class given is functional, cell-based.
Series [3] relates to NCI/ADR-RES. As to the kind of experiment: Synergistic cytotoxicity against human MCF7/ADR cells assessed as combination index at 0.5 uM after 72 hrs in presence of 0.25 uM doxorubicin by MTT assay. The class given is functional. For orientation: Formazan colour is commonly taken as a measure of viable cells.
Series [4] addresses T1, P-gp (ABCB1) (Homo sapiens, UniProt P08183). As to the kind of experiment: Inhibition of P-gp activity in human MCF7/ADR cells at 500 nM after 72 hrs by RT-PCR analysis relative to control. It is filed as cell-based, NCI/ADR-RES. The conditions noted are these: MCF7/ADR cells.
In series [5] the test system is NCI/ADR-RES. In words: Synergistic cytotoxicity against human MCF7/ADR cells assessed as combination index at 0.5 uM after 72 hrs in presence of 1 uM doxorubicin by MTT assay. The class given is functional.
Series [6] has as its system NCI/ADR-RES. In words: Synergistic cytotoxicity against human MCF7/ADR cells assessed as combination index at 0.5 uM after 72 hrs in presence of 0.5 uM doxorubicin by MTT assay. It is filed as functional.
The test system of series [7] is NCI/ADR-RES. As to the kind of experiment: Cytotoxicity against human MCF7/ADR cells assessed as reduction in cell viability incubated for 72 hrs by MTT assay.
Series [8] is described as follows: Reversal of multidrug resistant activity in human MCF7/ADR cells assessed as reversal fold after 72 hrs by MTT assay. The class given is functional, NCI/ADR-RES.
The nature of series [9]: Selectivity index, ratio of IC50 for human MRC5 cells to IC50 for human MCF7 cells. The conditions noted are these: MRC5 cells versus MCF7 cells, read-out: Ratio IC50. The class given is toxicity.
Series [10] in a line: Selectivity index, ratio of IC50 for human MRC5 cells to IC50 for human A2780 cells. It is filed as toxicity. The conditions noted are these: MRC5 cells versus A2780 cells, read-out: Ratio IC50.
The test system of the next series is HT-29. In words: Cytotoxicity against human HT29 cells assessed as reduction in cell viability incubated for 72 hrs by MTT assay. The conditions noted are these: HT-29, 72 h.
For series [11], the target named is ATP-dependent translocase ABCB1 (Homo sapiens, UniProt P08183). In words: Inhibition of P-gp activity in human MCF7/ADR cells after 72 hrs by RT-PCR analysis. The conditions noted are these: nci/adr-res, at 125 to 1000 nM, dose 125-1000 nM. It is filed as cell-based.
The next series has as its system MRC5. In words: Cytotoxicity against human MRC5 cells assessed as reduction in cell viability incubated for 72 hrs by MTT assay. The conditions noted are these: MRC5, 72 h.
For a further series, the system named is MCF7. In words: Cytotoxicity against human MCF7 cells assessed as reduction in cell viability incubated for 72 hrs by MTT assay. The conditions noted are these: MCF7, 72 h. It is filed as functional, cell-based.
Series [12] relates to NCI/ADR-RES. As to the kind of experiment: Synergistic cytotoxicity against human MCF7/ADR cells assessed as combination index at 1 uM after 72 hrs in presence of 0.5 uM doxorubicin by MTT assay. It is filed as functional.
Series [13] in a line: Selectivity index, ratio of IC50 for human MRC5 cells to IC50 for human HT29 cells. The class given is toxicity. The conditions noted are these: MRC5 cells versus HT29 cells, read-out: Ratio IC50.
Series [14] has as its target T1, P-gp (ABCB1). As to the kind of experiment: Inhibition of P-gp activity in human MCF7/ADR cells at 125 nM after 72 hrs by RT-PCR analysis relative to control. The class given is cell-based, NCI/ADR-RES.
Series [15] concerns the target T1, P-gp (ABCB1). In words: Inhibition of P-gp activity in human MCF7/ADR cells at 1000 nM after 72 hrs by RT-PCR analysis relative to control. It is filed as cell-based, NCI/ADR-RES. The conditions noted are these: MCF7/ADR cells.
Another series relates to A2780. In words: Cytotoxicity against human A2780 cells assessed as reduction in cell viability incubated for 72 hrs by MTT assay. The conditions noted are these: A2780, 72 h.
The target in series [16] is T1, P-gp (ABCB1). In words: Inhibition of P-gp activity in human MCF7/ADR cells at 250 nM after 72 hrs by RT-PCR analysis relative to control. The class given is cell-based, NCI/ADR-RES. The conditions noted are these: MCF7/ADR cells.
The test system of series [17] is NCI/ADR-RES. In words: Synergistic cytotoxicity against human MCF7/ADR cells assessed as combination index at 1 uM after 72 hrs in presence of 0.25 uM doxorubicin by MTT assay. The class given is functional.
Series [18] deals with NCI/ADR-RES. In words: Synergistic cytotoxicity against human MCF7/ADR cells assessed as combination index at 0.25 uM after 72 hrs in presence of 1 uM doxorubicin by MTT assay. The class given is functional.
For series [19], the system named is NCI/ADR-RES. In words: Synergistic cytotoxicity against human MCF7/ADR cells assessed as combination index at 0.25 uM after 72 hrs in presence of 0.25 uM doxorubicin by MTT assay. It is filed as functional.
For series [20], the system named is NCI/ADR-RES. As to the kind of experiment: Synergistic cytotoxicity against human MCF7/ADR cells assessed as combination index at 0.25 uM after 72 hrs in presence of 0.5 uM doxorubicin by MTT assay. It is filed as functional.
Series [21] relates to NCI/ADR-RES. As to the kind of experiment: Synergistic cytotoxicity against human MCF7/ADR cells assessed as combination index at 1 uM after 72 hrs in presence of 1 uM doxorubicin by MTT assay. The class given is functional.

T1 sequence (P08183 whole entry): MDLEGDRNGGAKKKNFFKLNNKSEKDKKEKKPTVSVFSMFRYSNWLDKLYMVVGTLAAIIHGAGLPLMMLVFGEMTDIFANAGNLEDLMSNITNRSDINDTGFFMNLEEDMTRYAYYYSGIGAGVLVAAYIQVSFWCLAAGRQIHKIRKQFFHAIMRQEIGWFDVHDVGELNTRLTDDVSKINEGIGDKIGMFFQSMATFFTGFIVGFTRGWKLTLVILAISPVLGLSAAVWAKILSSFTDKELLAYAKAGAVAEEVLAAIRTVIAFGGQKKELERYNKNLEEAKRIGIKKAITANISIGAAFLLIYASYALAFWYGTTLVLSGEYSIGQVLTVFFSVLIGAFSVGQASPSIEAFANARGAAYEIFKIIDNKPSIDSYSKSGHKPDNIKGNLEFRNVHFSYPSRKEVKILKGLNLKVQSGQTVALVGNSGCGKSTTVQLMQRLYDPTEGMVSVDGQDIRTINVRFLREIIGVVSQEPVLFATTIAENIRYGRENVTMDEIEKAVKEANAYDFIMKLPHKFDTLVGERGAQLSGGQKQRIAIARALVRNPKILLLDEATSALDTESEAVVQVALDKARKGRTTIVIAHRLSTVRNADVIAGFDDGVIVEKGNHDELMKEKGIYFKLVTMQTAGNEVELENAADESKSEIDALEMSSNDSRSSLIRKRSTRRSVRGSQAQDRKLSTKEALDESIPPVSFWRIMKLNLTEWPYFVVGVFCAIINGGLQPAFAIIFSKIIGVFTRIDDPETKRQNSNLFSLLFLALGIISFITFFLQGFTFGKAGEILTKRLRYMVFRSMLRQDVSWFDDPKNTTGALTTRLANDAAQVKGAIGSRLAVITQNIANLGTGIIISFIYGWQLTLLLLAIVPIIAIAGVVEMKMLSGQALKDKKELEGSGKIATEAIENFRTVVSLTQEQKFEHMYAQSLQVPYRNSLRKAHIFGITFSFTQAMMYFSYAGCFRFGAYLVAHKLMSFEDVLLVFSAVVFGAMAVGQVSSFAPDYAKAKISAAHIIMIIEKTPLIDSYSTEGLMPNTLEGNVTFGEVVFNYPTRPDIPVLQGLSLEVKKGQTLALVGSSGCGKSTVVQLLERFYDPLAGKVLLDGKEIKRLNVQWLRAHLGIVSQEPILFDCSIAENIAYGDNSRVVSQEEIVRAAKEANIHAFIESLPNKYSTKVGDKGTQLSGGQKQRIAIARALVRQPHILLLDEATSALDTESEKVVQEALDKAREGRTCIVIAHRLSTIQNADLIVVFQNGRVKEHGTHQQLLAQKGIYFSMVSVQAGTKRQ
Sequence of ATP-dependent translocase ABCB1 (P08183 whole entry): as above

Turning to `N#Cc1c2n(c3c(SCc4ccc(Cl)cc4)ncnc13)CCCCC2`, in [1], the IC50 – broadly, the midpoint of a concentration-inhibition curve – is more than 50 µM.

For `N#Cc1c2n(c3c(=O)n(-c4ccc(Br)cc4)cnc13)CCCC2`, the IC50 is 3070 nM with NCI/ADR-RES [2]; 20.2 µM in the series on NCI/ADR-RES [7]; 14.2 µM in the series with HT-29; 15.8 µM with MRC5; 270 nM with MCF7; 20 nM in the series with A2780. For the same compound, the CI in the series with NCI/ADR-RES [3] is on record as more than 100; with NCI/ADR-RES [5], 0.91; in the series on NCI/ADR-RES [6], 1.141; in the series on NCI/ADR-RES [12], 1.53; in the series with NCI/ADR-RES [17] it was more than 100; in the series with NCI/ADR-RES [18] it was 0.2. Besides, the CI is on record as more than 100 in the series with NCI/ADR-RES [19], more than 100 with NCI/ADR-RES [20] and 0.1 in the series with NCI/ADR-RES [21]. The inhibition (as a rule, the change of the read-out against control, counted positive when it falls) at 72 h, 0.5 µM against P-gp (ABCB1) [4] was found to be 87%. In series [8], the “fold change (FC)” value is reported as 5.93. Also, the selectivity ratio in [9] is 58.6; in series [10], 792; in [13], 1.12. Further, the “inhibition (INH)” value in series [11] is recorded as “Dose-Dependent Effect”. Moreover, the inhibition at 72 h, 0.125 µM against P-gp (ABCB1) [14] was found to be 5%. The same compound came in with an inhibition at 72 h, 1 µM on P-gp (ABCB1) [15] of 90%. The compound further registered an inhibition at 72 h, 0.25 µM against P-gp (ABCB1) [16] of 63%.

Take `N#Cc1c2n(c3c(=O)n(-c4ccc(F)cc4)cnc13)CCC2`: the IC50 with NCI/ADR-RES [2] was 2210 nM; in the series on NCI/ADR-RES [7], 10.3 µM; in the series with HT-29, 0.48 µM; in the series with MRC5, 11.2 µM; in the series on MCF7 it was 650 nM; in the series on A2780, 720 nM. For the same compound, the CI with NCI/ADR-RES [3] is listed as more than 100; with NCI/ADR-RES [5], 0.12; with NCI/ADR-RES [6] it was 1.089; with NCI/ADR-RES [12], 2.647; in the series with NCI/ADR-RES [17] it was more than 100; in the series on NCI/ADR-RES [18], 0.6. Moreover, the CI with NCI/ADR-RES [19] is more than 100; in the series with NCI/ADR-RES [20] it was 14.6; with NCI/ADR-RES [21], 0.1. On P-gp (ABCB1) [4], the inhibition at 72 h, 0.5 µM worked out at 91%. For the same compound, the “fold change (FC)” value in series [8] is reported as 8.24. For the same compound, the selectivity ratio stood at 17.3 in series [9], 15.6 in series [10] and 23.4 in series [13]. Besides, the “inhibition (INH)” value in [11] was “Dose-Dependent Effect”. This compound also gave an inhibition at 72 h, 0.125 µM against P-gp (ABCB1) [14] of 9%. The inhibition at 72 h, 1 µM on P-gp (ABCB1) [15] turned out to be 92%. In addition, the inhibition at 72 h, 0.25 µM against P-gp (ABCB1) [16] was 65%.
